Assay results from ChEMBL document CHEMBL5126537, “Influenza-existing drugs and treatment prospects” (Eur J Med Chem, 2022).

Tests used:
Influenza A virus = assay: Antiviral activity against Influenza A virus A/PR/8/34 (H1N1) infected in MDCK cells assessed as inhibition of viral entry preincubated for 1 hr followed by infection in MDCK cells measured after 1 hr by focus forming assay; format: functional, organism-based
[1] = Cytotoxicity against MDCK cells; format: toxicity, cell-based, Canis lupus familiaris; conditions: dog
[2] = Elimination half life in INH dosed mouse lungs; format: ADME, organism-based, Lung; conditions: in vivo, inhaled_or_intranasal

Compound: COc1cc(OC)c2c(=O)c(O)c(-c3ccc(OC)c(OC)c3)oc2c1
- IC50 (Influenza A virus): 36 µM

Compound: NC(=O)c1nc(F)c[nH]c1=O [FAVIPIRAVIR]
- CC50 [1]: > 2000 mg/L

Compound: CCCCCCCC(=O)OC[C@@H](O)[C@@H](OC)[C@@H]1OC(C(=O)O)=C[C@H](NC(=N)N)[C@H]1NC(C)=O [LANINAMIVIR OCTANOATE]
- t1/2 [2]: 41 h
